Results: PubChem BioAssay (NCI)
“And” between values parts separate entries of the source, which are not always exact repeats. Equal values may be shown once.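 48-hour exposure; five concentrations; linearly interpolated endpoints. GI50 = concentration required for 50% inhibition of growth. TGI: total growth inhibition.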

How the values were obtained:
Experiment in all cases: NCI anticancer screen, dose series, 48 h
MALME-3M melanoma = tested on: MALME-3M melanoma
CCRF-CEM leukemia = tested on: CCRF-CEM leukemia
HCC-2998 colon = tested on: HCC-2998 colon
OVCAR-4 ovarian = tested on: OVCAR-4 ovarian
RPMI-8226 leukemia = tested on: RPMI-8226 leukemia
SNB-19 CNS = tested on: SNB-19 CNS
SK-MEL-5 melanoma = tested on: SK-MEL-5 melanoma
COLO 205 colon = tested on: COLO 205 colon
MCF7 breast = tested on: MCF7 breast
HOP-92 NSCLC = tested on: HOP-92 NSCLC

SMILES | GI50 (MALME-3M melanoma) | TGI (MALME-3M melanoma) | GI50 (CCRF-CEM leukemia) | TGI (CCRF-CEM leukemia) | TGI (HCC-2998 colon) | TGI (OVCAR-4 ovarian) | TGI (RPMI-8226 leukemia) | GI50 (SNB-19 CNS) | TGI (SNB-19 CNS) | GI50 (SK-MEL-5 melanoma) | TGI (SK-MEL-5 melanoma) | TGI (COLO 205 colon) | GI50 (MCF7 breast) | TGI (MCF7 breast) | GI50 (HOP-92 NSCLC) | TGI (HOP-92 NSCLC) | GI50 (HCC-2998 colon) | GI50 (OVCAR-4 ovarian) | GI50 (RPMI-8226 leukemia) | GI50 (COLO 205 colon)
Cc1[nH]c(/C=C2\C(=O)Nc3ccccc32)c(C)c1CCC(=O)O | 10.7 µM | 36.8 µM and 75.6 µM | 28.3 µM | > 100 µM | > 100 µM | > 100 µM | 65 µM and 75.3 µM | 20.9 µM | > 100 µM | 19.8 µM | 48.7 µM and 81.5 µM | 43 µM and 45.9 µM | 23.9 µM | > 100 µM | 12.7 µM | 43.2 µM and 62.8 µM | – | – | – | –
COc1cc(C(=O)N2CCN(c3ncccn3)CC2)c(N)cc1OCc1ccccc1 | > 100 µM | > 100 µM | > 100 µM | > 100 µM | > 100 µM | > 100 µM | > 100 µM | > 100 µM | > 100 µM | 44.5 µM | > 100 µM | > 100 µM | > 100 µM | > 100 µM | > 100 µM | > 100 µM | > 100 µM | > 100 µM | > 100 µM | > 100 µM
CCn1sc2ccccc2c1=O | – | 39.6 µM | – | > 48.2 µM | 34 µM | 89.8 µM | > 100 µM | – | 32.9 µM | – | 25 µM | 29.3 µM | – | 26.8 µM | – | 22.5 µM | – | – | – | –
COc1cc(OC)c(/C=C/c2c3ccccc3cc[n+]2C)c(OC)c1 | 2.32 µM | 15.4 µM | 2.08 µM | > 72.1 µM | 14.7 µM | > 100 µM | 6.92 µM | 1.88 µM | 25 µM | 0.642 µM | 2.21 µM | 2.95 µM | 1.02 µM | 18.2 µM | 1.8 µM | 12.4 µM | 1.65 µM | 1.15 µM | 0.377 µM | 0.774 µM
CC(=O)Oc1ccccc1C(=O)Nc1ncc([N+](=O)[O-])s1 | 1.48 µM | – | 2.14 µM | 15.1 µM | 13.9 µM and > 100 µM | 13.8 µM and > 100 µM | > 100 µM | 2.05 µM | 45.7 µM and > 100 µM | 1.5 µM | 3.7 µM and 33 µM | – | 2.26 µM | 10.3 µM and > 100 µM | 0.227 µM | 0.966 µM and 8.1 µM | 2.03 µM | 2.05 µM | 0.677 µM | 1.83 µM
O[C@H](c1cc(C(F)(F)F)nc2c(C(F)(F)F)cccc12)[C@@H]1CCCCN1 | 0.875 µM | 5.73 µM | 8.52 µM | 40.7 µM | 4.13 µM | 15 µM | 42.8 µM | 7.19 µM | 20.9 µM | 3.64 µM | 8.09 µM | 4.27 µM | 2.46 µM | 6.8 µM | 1.79 µM | 8.43 µM | 1.85 µM | 4.45 µM | 11.2 µM | 1.98 µM
NC(=O)c1cc(S(=O)(=O)Nc2nnc(-c3ccccc3)c(-c3ccccc3)n2)c(SCc2ccccc2)cc1Cl | > 100 µM | > 100 µM | > 50.4 µM | > 82.3 µM | > 100 µM | > 64.6 µM | > 65.1 µM | > 100 µM | > 100 µM | > 79.6 µM | > 100 µM | > 100 µM | 30.2 µM | > 66.4 µM | > 100 µM | > 100 µM | > 100 µM | – | > 44.1 µM | > 100 µM
COCC1(CO)C(=O)C2CCN1CC2 (centres undefined) | 12.6 µM | 28.3 µM | 10.8 µM | 37.1 µM | > 100 µM | 40.4 µM | 64.3 µM | > 69 µM | > 100 µM | 43.7 µM | > 77.7 µM | 35.8 µM | 19.1 µM | 52.6 µM | 14.8 µM | 30 µM | > 100 µM | 16.9 µM | 23.8 µM | 16.8 µM
CN(CCO)c1ccc(N2Cc3ccccc3OC3=C2C(=O)c2c(O)ccc(O)c2C3=O)cn1 | 0.0833 µM | 0.245 µM | 0.0566 µM | 0.548 µM | 0.608 µM | 0.343 µM | 0.713 µM | 0.465 µM | 1.67 µM | 0.267 µM | 0.717 µM | 0.302 µM | 0.0638 µM | 0.31 µM | 0.223 µM | 0.505 µM | 0.249 µM | 0.173 µM | 0.227 µM | 0.133 µM
N=C(N)c1ccc2nc(-c3cc(CC(=O)N[C@@H](CC(=O)O)C(=O)O)cc(-c4cc(S(N)(=O)=O)ccc4O)c3O)[nH]c2c1 | > 100 µM | > 100 µM | > 100 µM | > 100 µM | > 100 µM | > 100 µM | > 100 µM | > 100 µM | > 100 µM | > 100 µM | > 100 µM | > 100 µM | > 100 µM | > 100 µM | > 100 µM | > 100 µM | > 100 µM | > 100 µM | > 100 µM | > 100 µM
CCN1CCC(O)(/C=C/c2ccc(C)cc2)C(C(=O)/C=C/c2ccc(C)cc2)C1 (centres undefined) | – | 14.8 µM | – | 5.62 µM | 5.08 µM | 23 µM | 10.8 µM | – | 23.5 µM | – | 9.85 µM | 4.45 µM | – | 6.36 µM | – | 19.6 µM | – | – | – | –
O=C(O)CC(NC(=O)CP(=O)(O)O)C(=O)O (centres undefined) | – | > 8470 µM | – | > 10000 µM | > 10000 µM | > 10000 µM | > 10000 µM | 72.6 µM | > 10000 µM | – | > 10000 µM | > 10000 µM | – | > 10000 µM | – | 2380 µM | – | – | – | –
CCCCCOc1ccc(/C=N/Nc2cc(C)nc3ccc(Br)cc23)cc1 | 1.88 µM | 3.46 µM | 1.54 µM | 3.51 µM | 3.8 µM | 3.27 µM | 4.17 µM | 1.96 µM | 3.71 µM | 1.74 µM | 3.16 µM | 3.72 µM | 1.71 µM | 3.68 µM | 1.36 µM | 2.88 µM | 2.07 µM | 1.76 µM | 1.91 µM | 1.96 µM
